Here are results for 17 molecules from US9611278B2 (Merck Sharp & Dohme Corp., priority 2013, dated 2017).

pEC50: −log10 of the molar value.

This test deals with T1, sGC α1/β1 heterodimer stably expressed in CHO-K1 cells (CHO-K1/sGC) (Homo sapiens, UniProt Q02108+Q02153).
T1 construct: expressed in transfected cells
T1 sequence (Q02108 1-690): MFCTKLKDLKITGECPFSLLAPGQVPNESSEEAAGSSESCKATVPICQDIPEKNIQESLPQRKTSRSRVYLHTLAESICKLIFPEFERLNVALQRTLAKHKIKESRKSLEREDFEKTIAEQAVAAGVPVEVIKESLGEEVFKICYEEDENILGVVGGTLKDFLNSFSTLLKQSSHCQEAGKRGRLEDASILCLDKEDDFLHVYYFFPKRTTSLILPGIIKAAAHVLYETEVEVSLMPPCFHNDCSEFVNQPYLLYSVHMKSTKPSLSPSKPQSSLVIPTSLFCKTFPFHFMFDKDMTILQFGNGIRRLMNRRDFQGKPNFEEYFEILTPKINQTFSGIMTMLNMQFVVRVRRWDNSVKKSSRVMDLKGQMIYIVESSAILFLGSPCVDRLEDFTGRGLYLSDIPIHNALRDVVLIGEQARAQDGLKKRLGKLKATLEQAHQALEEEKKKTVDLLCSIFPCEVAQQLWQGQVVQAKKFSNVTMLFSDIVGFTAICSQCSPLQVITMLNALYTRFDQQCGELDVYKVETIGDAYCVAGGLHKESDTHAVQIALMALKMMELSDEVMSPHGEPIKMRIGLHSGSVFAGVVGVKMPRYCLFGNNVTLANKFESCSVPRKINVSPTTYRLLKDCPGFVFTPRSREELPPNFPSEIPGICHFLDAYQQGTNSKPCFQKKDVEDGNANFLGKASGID
T1 sequence (Q02153 1-619): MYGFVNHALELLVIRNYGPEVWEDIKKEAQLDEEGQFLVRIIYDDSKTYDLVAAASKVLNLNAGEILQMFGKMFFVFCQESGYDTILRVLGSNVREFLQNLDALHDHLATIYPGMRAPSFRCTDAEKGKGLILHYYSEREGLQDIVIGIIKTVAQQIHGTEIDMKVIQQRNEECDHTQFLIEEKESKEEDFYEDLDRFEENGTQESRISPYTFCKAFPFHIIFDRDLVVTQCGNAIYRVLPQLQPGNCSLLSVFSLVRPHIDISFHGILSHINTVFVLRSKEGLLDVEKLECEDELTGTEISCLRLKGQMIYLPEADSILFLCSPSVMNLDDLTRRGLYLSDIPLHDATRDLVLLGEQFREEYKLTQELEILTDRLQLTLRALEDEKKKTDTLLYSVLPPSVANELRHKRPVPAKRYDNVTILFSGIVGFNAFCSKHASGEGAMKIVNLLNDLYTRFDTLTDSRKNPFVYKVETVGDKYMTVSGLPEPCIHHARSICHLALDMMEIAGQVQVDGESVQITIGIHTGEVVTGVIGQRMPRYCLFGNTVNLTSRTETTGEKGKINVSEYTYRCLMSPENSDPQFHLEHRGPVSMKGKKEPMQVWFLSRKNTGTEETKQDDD
Put plainly: Cell-based sGC Functional Assay (CASA Assay). Particulars: for Emax: CHO-K1, activation as percentage of maximum cGMP production of Compound A (set to 100%), read-out: % Act.; for pEC50: inflection point of cGMP generation in CHO-K1/sGC cells, 4P fit, 1 hr at 37° C., read-out: IP. An outline of the steps:
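CHO-K1 cells stably expressing human sGC α1/β1 were incubated with compound for 1 h at 37 °C in buffer with 0.5 mM IBMX and 2.5% DMSO, with or without 1 μM DETA-NO. Intracellular cGMP was read by HTRF and expressed as percentage of maximal activation by reference activator Compound A. Values came from a 4-parameter fit.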

For `Cn1ncc2c(-c3nc(N)c4c(n3)NC(=O)C4(C)c3ccccn3)nc(CCCC(F)(F)F)nc21` (stereo not shown) [Example 21, 4-Amino-5-methyl-2-(1-methyl-6-(4,4,4-trifluorobutyl)-1H-pyrazolo[3,4-d]pyrimidin-4-yl)-5-(pyridin-2-yl)-5,7-dihydro-6H-pyrrolo[2,3-d]pyrimidin-6-one], the Emax was 111% and the pEC50 is 6.86.

For the molecule `Cn1ncc2c(-c3nc(N)c4c(n3)NC(=O)C4(C)c3ccccn3)nc(CCC(F)(F)C(F)(F)F)nc21` (stereo not shown) [Example 22, 4-Amino-5-methyl-2-(1-methyl-6-(3,3,4,4,4-pentafluorobutyl)-1H-pyrazolo[3,4-d]pyrimidin-4-yl)-5-(pyridin-2-yl)-5,7-dihydro-6H-pyrrolo[2,3-d]pyrimidin-6-one], the Emax is 103% and the pEC50 was 7.15.

With `Cn1cc(C2(C)C(=O)Nc3nc(-c4nc(CCC(F)(F)C(F)(F)F)nc5c4cnn5C)nc(N)c32)cn1` (stereo not shown) [Example 23, 4-Amino-5-methyl-5-(1-methyl-1H-pyrazol-4-yl)-2-(1-methyl-6-(3,3,4,4,4-pentafluorobutyl)-1H-pyrazolo[3,4-d]pyrimidin-4-yl)-5,7-dihydro-6H-pyrrolo[2,3-d]pyrimidin-6-one], the Emax was determined as 88% and the pEC50 is 6.36.

Turning to `[2H]C([2H])([2H])n1ncc2c(-c3nc(N)c4c(n3)NC(=O)C4(c3cnn(C)c3)C3CC3)nc(CCC(F)(F)C(F)(F)F)nc21` (stereo not shown) [Example 24, 4-Amino-5-cyclopropyl-5-(1-methyl-1H-pyrazol-4-yl)-2-(1-(methyl-d3)-6-(3,3,4,4,4-pentafluorobutyl)-1H-pyrazolo[3,4-d]pyrimidin-4-yl)-5,7-dihydro-6H-pyrrolo[2,3-d]pyrimidin-6-one], the Emax worked out at 84% and the pEC50 is 6.05.

For `CC(C)n1cc(C2(C3CC3)C(=O)Nc3nc(-c4nc(CCC(F)(F)C(F)(F)F)nc5c4cnn5C)nc(N)c32)cn1` (stereo not shown) [Example 26, 4-Amino-5-cyclopropyl-5-(1-isopropyl-1H-pyrazol-4-yl)-2-(1-methyl-6-(3,3,4,4,4-pentafluorobutyl)-1H-pyrazolo[3,4-d]pyrimidin-4-yl)-5,7-dihydro-6H-pyrrolo[2,3-d]pyrimidin-6-one], the Emax was 72% and the pEC50 is 6.64.

Take `Cn1ncc2c(-c3nc(N)c4c(n3)NC(=O)C4(c3ncco3)C3CC3)nc(CCC(F)(F)C(F)(F)F)nc21` (stereo not shown) [Example 28, 4-Amino-5-cyclopropyl-2-(1-methyl-6-(3,3,4,4,4-pentafluorobutyl)-1H-pyrazolo[3,4-d]pyrimidin-4-yl)-5-(oxazol-2-yl)-5,7-dihydro-6H-pyrrolo[2,3-d]pyrimidin-6-one]: the Emax stood at 126% and the pEC50 was 6.05.

`Cn1ncc2c(-c3nc(N)c4c(n3)NC(=O)C4(C)c3ccc(F)cn3)nc(CCC3CC(F)(F)C3)nc21` (stereo not shown) [Example 29, 4-Amino-2-(6-(2-(3,3-difluorocyclobutyl)ethyl)-1-methyl-1H-pyrazolo[3,4-d]pyrimidin-4-yl)-5-(5-fluoropyridin-2-yl)-5-methyl-5,7-dihydro-6H-pyrrolo[2,3-d]pyrimidin-6-one]: the Emax turned out to be 121% and the pEC50 is 6.64.

With `Cn1ncc2c(-c3nc(N)c4c(n3)NC(=O)C4(C)c3ccc(F)cn3)nc(CCC3CCC3)nc21` (stereo not shown) [Example 30, 4-Amino-2-(6-(2-cyclobutylethyl)-1-methyl-1H-pyrazolo[3,4-d]pyrimidin-4-yl)-5-(5-fluoropyridin-2-yl)-5-methyl-5,7-dihydro-6H-pyrrolo[2,3-d]pyrimidin-6-one], the Emax turned out to be 98% and the pEC50 was 7.46.

As to `Cn1ncc2c(-c3nc(N)c4c(n3)NC(=O)C4(c3ccc(Cl)cn3)C3CC3)nc(CC3CC(F)(F)C3)nc21` (stereo not shown) [Example 31, 4-Amino-5-(5-chloropyridin-2-yl)-5-cyclopropyl-2-(6-((3,3-difluorocyclobutyl)methyl)-1-methyl-1H-pyrazolo[3,4-d]pyrimidin-4-yl)-5,7-dihydro-6H-pyrrolo[2,3-d]pyrimidin-6-one], the Emax was determined as 169% and the pEC50 is 7.36.

Regarding `Cn1ncc2c(-c3nc(N)c4c(n3)NC(=O)C4(c3ccc(C(F)(F)F)cn3)C3CC3)nc(CC3CC(F)(F)C3)nc21` (stereo not shown) [Example 32, 4-Amino-5-cyclopropyl-2-(6-((3,3-difluorocyclobutyl)methyl)-1-methyl-1H-pyrazolo[3,4-d]pyrimidin-4-yl)-5-(5-(trifluoromethyl)pyridin-2-yl)-5,7-dihydro-6H-pyrrolo[2,3-d]pyrimidin-6-one], the Emax was determined as 113% and the pEC50 is 7.23.

For the molecule `COc1ccc(C2(C)C(=O)Nc3nc(-c4nc(CC5CC(F)(F)C5)nc5c4cnn5C)nc(N)c32)nc1` (stereo not shown) [Example 33, 4-Amino-2-(6-((3,3-difluorocyclobutyl)methyl)-1-methyl-1H-pyrazolo[3,4-d]pyrimidin-4-yl)-5-(5-methoxypyridin-2-yl)-5-methyl-5,7-dihydro-6H-pyrrolo[2,3-d]pyrimidin-6-one], the Emax worked out at 104% and the pEC50 was 7.49.

For `CCCCc1nc(-c2nc(N)c3c(n2)NC(=O)C3(C)c2ccc(F)cn2)c2cnn(C)c2n1` (stereo not shown) [Example 34, 4-Amino-2-(6-butyl-1-methyl-1H-pyrazolo[3,4-d]pyrimidin-4-yl)-5-(5-fluoropyridin-2-yl)-5-methyl-5,7-dihydro-6H-pyrrolo[2,3-d]pyrimidin-6-one], the Emax worked out at 109% and the pEC50 was 7.36.

Regarding `CCCCc1nc(-c2nc(N)c3c(n2)NC(=O)C3(C)c2ccc(C(C)C)cn2)c2cnn(C)c2n1` (stereo not shown) [Example 35, 4-Amino-2-(6-butyl-1-methyl-1H-pyrazolo[3,4-d]pyrimidin-4-yl)-5-(5-isopropylpyridin-2-yl)-5-methyl-5,7-dihydro-6H-pyrrolo[2,3-d]pyrimidin-6-one], the Emax was determined as 88% and the pEC50 was 7.02.

For the molecule `Cn1ncc2c(-c3nc(N)c4c(n3)NC(=O)C4(C)c3ccc(Cl)cn3)nc(CC3CC(F)(F)C3)nc21` (stereo not shown) [Example 37, 4-Amino-5-(5-chloropyridin-2-yl)-2-(6-((3,3-difluorocyclobutyl)methyl)-1-methyl-1H-pyrazolo[3,4-d]pyrimidin-4-yl)-5-methyl-5,7-dihydro-6H-pyrrolo[2,3-d]pyrimidin-6-one], the Emax was 192% and the pEC50 is 7.39.

As to `[2H]C([2H])([2H])n1ncc2c(-c3nc(N)c4c(n3)NC(=O)C4(C)c3nnc(C4CC4)o3)nc(CCC(F)(F)C(F)(F)F)nc21` (stereo not shown) [Example 39, 4-Amino-5-(5-cyclopropyl-1,3,4-oxadiazol-2-yl)-5-methyl-2-(1-(methyl-d3)-6-(3,3,4,4,4-pentafluorobutyl)-1H-pyrazolo[3,4-d]pyrimidin-4-yl)-5,7-dihydro-6H-pyrrolo[2,3-d]pyrimidin-6-one], the Emax was 115% and the pEC50 was 6.82.

For `[2H]C([2H])([2H])n1ncc2c(-c3nc(N)c4c(n3)NC(=O)C4(CC)c3nnc(C4CC4)o3)nc(CCC(F)(F)C(F)(F)F)nc21` (stereo not shown) [Example 42, 4-Amino-5-(5-cyclopropyl-1,3,4-oxadiazol-2-yl)-5-ethyl-2-(1-(methyl-d3)-6-(3,3,4,4,4-pentafluorobutyl)-1H-pyrazolo[3,4-d]pyrimidin-4-yl)-5,7-dihydro-6H-pyrrolo[2,3-d]pyrimidin-6-one], the Emax came to 120% and the pEC50 was 6.05.

Consider `[2H]C([2H])([2H])n1ncc2c(-c3nc(N)c4c(n3)NC(=O)C4(c3nnc(C4CC4)o3)C3CC3)nc(CCCC(F)(F)F)nc21` (stereo not shown) [Example 43, 4-Amino-5-cyclopropyl-5-(5-cyclopropyl-1,3,4-oxadiazol-2-yl)-2-(1-(methyl-d3)-6-(4,4,4-trifluorobutyl)-1H-pyrazolo[3,4-d]pyrimidin-4-yl)-5,7-dihydro-6H-pyrrolo[2,3-d]pyrimidin-6-one], for which the Emax came to 143% and the pEC50 is 6.08.
